Results from US12146879B2, “Capacitive biosensor for identifying a microorganism or determining antibiotic susceptibility” (priority 2016, dated 2024).
Values after ≈ are worked out from the molar mass of the structure shown.

How the values were obtained:
E. coli [1] = experiment: Susceptibility measurement by type of antibiotic with capacitive biosensor (E. coli-specific aptamer); format: cell-based; conditions: antibiotic 100 ng/ml, 37° C., 6 hours, FIG. 8
Protocol: The susceptibility inspection for antibiotics was performed, after identifying an E. coli using the capacitive biosensor manufactured by treating E. coli-specific aptamer in Experimental Example 2 on the substrate manufactured according to Manufacturing Example 2.
PBS was treated as a control, each treatment was treated with cephalothin, Gentamicin, Ciprofloxacin and chloramphenicol at a concentration of 100 ng/ml, the change in capacitance with time was measured for 6 hours in an incubator at 37° C.

E. coli [2] = conditions: reference value given in the method; cited from earlier work
E. coli [3] = experiment: Minimum inhibitory concentration by real-time capacitance of capacitive biosensor; format: cell-based; conditions: E. coli 10^5 cells/ml grown 2 hours at 37° C.
Protocol: To determine the minimum inhibitory concentration of an antibiotic, E. coli (10^5 cells/ml) was treated with a capacitive biosensor and grown at 37° C. for 2 hours, and then treated with antibiotic ceftriaxone (MIC: ˜ 30 ng/ml) at concentrations of 100, 80, 60, 40 and 20 ng/ml, respectively. The degree of susceptibility was determined based on the results of the capacitance monitored in real time, and the minimum inhibitory concentration thereof was confirmed.
(§1) In addition, E. coli (10^5 cells/ml) was treated with a capacitive biosensor and grown at 37° C. for 2 hours, and then treated with antibiotic Gentamicin (MIC: ˜ […]) 50, 5, 0.5, 0.05, and 0.005 μg/ml, respectively. The degree of susceptibility was determined based on the results of the capacitance monitored in real time, and the minimum inhibitory concentration thereof was confirmed.

Staphylococcus aureus [4] = conditions: reference value given in the method; cited from earlier work
[5] = tested on: Tetracycline-resistant E. coli; experiment: Susceptibility of antibiotic-resistant bacterium by real-time capacitance; format: cell-based; conditions: Tetracycline 2 μg/ml, Gentamicin 1 μg/ml, Ampicillin 8 μg/ml; FIG. 11 (a)
Protocol: (§2) In addition, Tetracycline-resistant E. coli or Ampicillin-resistant E. coli (10^5 cells/ml) was treated with a capacitive biosensor and grown at 37° C. for 2 hours, and was then treated with Tetracycline at a concentration of 2 μg/ml, Gentamicin at a concentration of 1 μg/ml, and Ampicillin at a concentration of 8 μg/ml, respectively. The degree of susceptibility was determined based on the results of the capacitance monitored in real time.

[6] = tested on: Ampicillin-resistant E. coli; experiment: as above; format: cell-based; conditions: Tetracycline 2 μg/ml, Gentamicin 1 μg/ml, Ampicillin 8 μg/ml; FIG. 11 (b)
Protocol: as §2

Staphylococcus aureus [7] = experiment: Minimum inhibitory concentration by real-time capacitance of capacitive biosensor; format: cell-based; conditions: Staphylococcus aureus 10^5 cells/ml grown 2 hours at 37° C.; 50, 5, 0.5, 0.05, 0.005 μg/ml; text prints 'this E. coli'
Protocol: as §1, with “Staphylococcus aureus” for “E. coli”, “then was” for “then”

E. coli [8] = experiment: Identification of a microorganism: capacitance change of aptamer-fixed biosensor; format: binding; conditions: about 2 hours, 37° C., FIG. 6
Protocol: (§3) An experiment was conducted to confirm whether a microorganism could be identified using the biosensor produced according to Production Example 2.
(§4) Particularly, each well was treated and fixed with an aptamer specific to E. coli, Acinetobacterbaumannii, Staphylococcus aureus or Enterococcus faecalis, and media (a control group or a control) not containing a microorganism, E. coli, Acinetobacterbaumannii, Staphylococcus aureus or Enterococcus faecalis were treated with a sensor, and then the change in capacitance was measured after about 2 hours in an incubator at 37° C.

other microorganisms = experiment: as above; format: binding; conditions: about 2 hours, 37° C., FIG. 6
Protocol: as §3, §4

Staphylococcus aureus [9] = experiment: as above; format: binding; conditions: about 2 hours, 37° C., FIG. 6
Protocol: as §3, §4

Molecule: O=C(O)c1cn(C2CC2)c2cc(N3CCNCC3)c(F)cc2c1=O [Ciprofloxacin]
- change in capacitance after the addition of antibiotics (E. coli [1]): decrease in capacitance
- susceptibility or resistance of the bacterium to the antibiotic (E. coli [1]): susceptibility
- susceptibility or resistance of the bacterium to the antibiotic (E. coli [1]; listed as ciprofloxacin): high

Molecule: CO/N=C(\C(=O)N[C@@H]1C(=O)N2C(C(=O)O)=C(CSc3nc(=O)c(=O)[nH]n3C)CS[C@H]12)c1csc(N)n1 [ceftriaxone]
- MIC (stated with the antibiotic) (E. coli [2]): ~0.03 µg/mL
- MIC (E. coli [3]; Escherichia coli, 100, 80, 60, 40 and 20 ng/ml, FIG. 9): 0.04 µg/mL (≈ 0.0721 µM)

Molecule: CC(=O)OCC1=C(C(=O)O)N2C(=O)[C@@H](NC(=O)Cc3cccs3)[C@H]2SC1 [cephalothin]
- change in capacitance after the addition of antibiotics (E. coli [1]): increase in capacitance
- susceptibility or resistance of the bacterium to the antibiotic (E. coli [1]): resistance (tolerance)

Molecule: O=C(N[C@H](CO)[C@H](O)c1ccc([N+](=O)[O-])cc1)C(Cl)Cl [chloramphenicol]
- change in capacitance after the addition of antibiotics (E. coli [1]): increase in capacitance
- susceptibility or resistance of the bacterium to the antibiotic (E. coli [1]): resistance (tolerance)

Molecule: Gentamicin
- MIC (stated with the antibiotic) (E. coli [2]): 0.5 µg/mL
- MIC (stated with the antibiotic) (Staphylococcus aureus [4]): 0.5 µg/mL
- minimum inhibitory concentration (E. coli [3]; 50, 5, 0.5, 0.05, 0.005 μg/ml, FIG. 10): 0.5 µg/mL
- change in capacitance value after antibiotic treatment [5]: decrease in capacitance value
- change in capacitance value after antibiotic treatment [6]: decrease in capacitance value
- minimum inhibitory concentration (Staphylococcus aureus [7]): 0.5 µg/mL
- change in capacitance after the addition of antibiotics (E. coli [1]): decrease in capacitance
- susceptibility or resistance of the bacterium to the antibiotic (E. coli [1]): susceptibility

B1: E. coli-specific aptamer: E. coli-specific aptamer, SEQ ID NO: 1, Genotech, Daejeon, Korea (nucleic acid)
chain: GCAATGGTACGGTACTTCCCCATGAGTGTTGTGAAATGTTGGGACACTAGGTGGCATAGAGCCGCAAAAGTGCACGCTACTTTGCTAA
modifications: DNA, backbone and methylation of C not given here; deposited on substrate, further chemistry not fully specified
- change in capacitance on treatment with E. coli (E. coli [8]): significantly increased
- change in capacitance on treatment with other microorganisms (other microorganisms): did not occur significantly

B2: Staphylococcus aureus-specific aptamer: Staphylococcal aptamer, SEQ ID NO: 3, Genotech, Daejeon, Korea (nucleic acid)
chain: GCAATGGTACGGTACTTCCTCGGCACGTTCTCAGTAGCGCTCGCTGGTCATCCCACAGCTACGTCAAAAGTGCACGCTACTTTGCTAA
modifications: DNA, backbone and methylation of C not given here; deposited on substrate, further chemistry not fully specified
- change in capacitance on treatment with Staphylococcus aureus (Staphylococcus aureus [9]): large capacitance change
- change in capacitance on treatment with other microorganisms (other microorganisms): did not occur significantly
